Each structure is given as a SMILES string.

For orientation: IC50 means the concentration that gives 50% inhibition. Higher therefore signals weaker potency.

T1 sequence (P14902 whole entry): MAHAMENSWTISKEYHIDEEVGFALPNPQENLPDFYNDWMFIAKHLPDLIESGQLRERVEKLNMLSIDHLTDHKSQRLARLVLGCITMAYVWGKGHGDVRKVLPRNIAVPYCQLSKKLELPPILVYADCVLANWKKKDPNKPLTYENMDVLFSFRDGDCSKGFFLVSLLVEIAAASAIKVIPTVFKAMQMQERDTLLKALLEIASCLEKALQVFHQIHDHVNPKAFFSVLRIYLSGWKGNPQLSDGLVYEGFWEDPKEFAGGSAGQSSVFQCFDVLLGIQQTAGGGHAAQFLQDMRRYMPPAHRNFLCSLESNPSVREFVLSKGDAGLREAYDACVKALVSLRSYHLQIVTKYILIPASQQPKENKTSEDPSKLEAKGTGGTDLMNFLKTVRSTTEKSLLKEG

This experiment has as its target T1, indoleamine 2,3-dioxygenase (IDO) (Homo sapiens, UniProt P14902).
T1 construct: host or cells: HeLa cells stimulated with IFNγ (25 ng/mL)
The experiment can be described thus: HeLa cell-based indoleamine 2,3-dioxygenase (IDO) assay (kynurenine production). Particulars: HeLa cells, IFNγ 25 ng/mL, 48 hour incubation, absorbance at 480 nm. The method, then: Assessment of inhibitor activity in HeLa cell-based indoleamine 2,3-dioxygenase (IDO) assay:
HeLa (ATCC® CCL-2) cells were obtained from the ATCC® and cultured in Dulbecco's Modified Eagle Medium supplemented with 4.5 g/L glucose, […] (#10-013-CV, Corning), 2 mM L-alanyl-L-glutamine dipeptide (#35050-061, Gibco), 100U/mL penicillin, 100 μg/mL streptomycin (#SV30010, HyClone) and 10% fetal bovine serum (#SH30071.03 HyClone). Cells were maintained in a humidified incubator at 37° C. in 5% CO2.
IDO activity was assessed as a function of kynurenine production as follows: HeLa cells were seeded in a 96-well culture plate at a density of 5,000 cells/well and allowed to equilibrate overnight. After 24 hours, the media was aspirated and replaced with media containing IFNγ (#285-IF/CF, R&D Systems) at a final concentration of 25 ng/mL. A serial dilution of each test compound was added to the cells in a total volume of 200 μL of culture medium. After a further 48 hour incubation, 170 μL of supernatant was transferred from each well to a fresh 96-well plate. 12.1 μL of 6.1N trichloroacetic acid (#T0699, Sigma-Aldrich) was added to each well and mixed, followed by incubation at 65° C. for 20 minutes to hydrolyze N-formylkynurenine, the product of indoleamine 2,3-dioxygenase, to kynurenine. The reaction mixture was then centrifuged for 10 mins at 500×g to sediment the precipitate. 100 μL of the supernatant was transferred from each well to afresh 96-well plate. 100 μl of 2% (w/v) p-dimethylaminobenzaldehyde (#15647-7, Sigma-Aldrich) in acetic acid (#A6283, Sigma-Aldrich) was added to each well mixed and incubated at room temperature for 20 mins. Kynurenine concentrations were determined by measuring absorbance at 480 nm and calibrating against an L-kynurenine (#K8625, Sigma-Aldrich) standard curve using a SPECTRAMAX® M2e microplate reader (Molecular Devices). The percentage activity at each inhibitor concentration was determined and IC50 values assessed using nonlinear regression.
Consider `CC(c1nc2ccc(Cl)cc2[nH]1)C1CCC(c2ccnc3ncccc23)CC1` (mixture of isomers) [Example 34, (±)-Cis and trans-(4-(1-(6-chloro-1H-benzo[d]imidazol-2-yl)ethyl)cyclohexyl)-1,8-naphthyridine], for which the IC50 was determined as 68.1 nM.

Compound `COCC(c1nc2ccc(Cl)cc2[nH]1)[C@H]1CC[C@@H](c2ccnc3ccc(C(F)(F)F)cc32)CC1` (mixture of isomers) [Example 18, (±)-4-((cis)-4-(1-(6-chloro-1H-benzo[d]imidazol-2-yl)-2-methoxyethyl)cyclohexyl)-6-(trifluoromethyl)quinoline] yielded an IC50 of 12.1 nM. Under `COCC(c1nc2ccc(Cl)cc2[nH]1)[C@H]1CC[C@@H](c2ccnc3ccc(F)cc32)CC1` (mixture of isomers) [Example 19, (±)-4-((cis)-4-(1-(6-chloro-1H-benzo[d]imidazol-2-yl)-2-methoxyethyl)cyclohexyl)-6-fluoroquinoline] stands 3.8 nM. Under `CCC(c1nc2ncc(Cl)cc2[nH]1)[C@H]1CC[C@H](Oc2ccnc3ccccc23)CC1` (mixture of isomers) [Example 20, (±)-4-(((trans)-4-(1-(6-chloro-1H-imidazo[4,5-b]pyridin-2-yl)-3-propyl)cyclohexyl)oxy)quinoline] stands 5.8 nM; under `CCC(c1nc2ncc(Cl)cc2[nH]1)[C@H]1CC[C@@H](c2ccnc3ccc(C(F)(F)F)cc32)CC1` (mixture of isomers) [Example 22, (±)-4-((cis)-4-(1-(6-chloro-1H-imidazo[4,5-b]pyridin-2-yl)propyl)cyclohexyl)-6-(trifluoromethyl)quinoline], 3.7 nM. Under `CCC(c1nc2ncc(Cl)cc2[nH]1)[C@H]1CC[C@@H](c2ccnc(F)c2C)CC1` (mixture of isomers) [Example 24, (±)-6-chloro-2-(1-((cis)-4-(2-fluoro-3-methylpyridin-4-yl)cyclohexyl)-3-propyl)-1H-imidazo[4,5-b]pyridine] stands 7.5 nM. The compound `CCOCC(c1nc2ccc(Cl)cc2[nH]1)[C@H]1CC[C@@H](c2ccnc(F)c2C)CC1` (mixture of isomers) [Example 25, (±)-6-chloro-2-(2-ethoxy-1-((cis)-4-(2-fluoro-3-methylpyridin-4-yl)cyclohexyl)ethyl)-1H-benzo[d]imidazole] registered an IC50 of 44.9 nM.

In the case of `Fc1ccc2nccc(C3CCC(C(CC(F)(F)F)c4nc5ccc(Cl)cc5[nH]4)CC3)c2c1` (racemic) [Example 33, (±)-Cis and trans-4-(4-(1-(6-chloro-1H-benzo[d]imidazol-2-yl)-3,3,3-trifluoropropyl)cyclohexyl)-6-fluoroquinoline], half-maximal inhibition (IC50) required 7.5 nM. Under `CCC(c1nc2ncc(Cl)cc2[nH]1)[C@H]1CC[C@H](Oc2ccnc3ccccc23)CC1` (single isomer, unassigned) [Example 20-1] stands 6 nM; under `CCC(c1nc2ncc(Cl)cc2[nH]1)[C@H]1CC[C@H](Oc2ccnc3ccccc23)CC1` (single isomer, unassigned) [Example 20-2], 4.5 nM; under `CC[C@H](c1nc2ncc(Cl)cc2[nH]1)[C@H]1CC[C@@H](c2ccnc3ccc(F)cc32)CC1` (single isomer, unassigned) [Example 21-1, 4-(4-(1-(6-chloro-1H-imidazo[4,5-b]pyridin-2-yl)propyl)cyclohexyl)-6-fluoroquinoline], 2 nM. Under `CC[C@H](c1nc2ncc(Cl)cc2[nH]1)[C@H]1CC[C@@H](c2ccnc3ccc(F)cc32)CC1` (single isomer, unassigned) [Example 21-2, 4-(4-(1-(6-chloro-1H-imidazo[4,5-b]pyridin-2-yl)propyl)cyclohexyl)-6-fluoroquinoline] stands 1000 nM.

Take `CC[C@H](c1nc2ncc(Cl)cc2[nH]1)[C@H]1CC[C@@H](c2ccnc3ccc(F)cc32)CC1` (single isomer, unassigned) [Example 21-3, 4-(4-(1-(6-chloro-1H-imidazo[4,5-b]pyridin-2-yl)propyl)cyclohexyl)-6-fluoroquinoline]: it took 5.1 nM to reach half-maximal inhibition (IC50). Under `CC[C@H](c1nc2ncc(Cl)cc2[nH]1)[C@H]1CC[C@@H](c2ccnc3ccc(F)cc32)CC1` (single isomer, unassigned) [Example 21-4, 4-(4-(1-(6-chloro-1H-imidazo[4,5-b]pyridin-2-yl)propyl)cyclohexyl)-6-fluoroquinoline] stands 89.7 nM. Take `CCC(c1nc2ncc(Cl)cc2[nH]1)[C@H]1CC[C@@H](c2ccnc3ccc(C(F)(F)F)cc32)CC1` (single isomer, unassigned) [Example 22-1, 4-((cis)-4-(1-(6-chloro-1H-imidazo[4,5-b]pyridin-2-yl)propyl)cyclohexyl)-6-(trifluoromethyl)quinoline]: inhibition was half-maximal at 2.4 nM (IC50). Compound `CCC(c1nc2ncc(Cl)cc2[nH]1)[C@H]1CC[C@@H](c2ccnc3ccc(C(F)(F)F)cc32)CC1` (single isomer, unassigned) [Example 22-2, 4-((cis)-4-(1-(6-chloro-1H-imidazo[4,5-b]pyridin-2-yl)propyl)cyclohexyl)-6-(trifluoromethyl)quinoline] showed an IC50 of 99.1 nM. Under `CCC(c1nc2ccc(Cl)cc2[nH]1)[C@H]1CC[C@@H](c2ccnc(F)c2C)CC1` (single isomer, unassigned) [Example 23-1, 6-chloro-2-(1-((cis)-4-(2-fluoro-3-methylpyridin-4-yl)cyclohexyl)-3-propyl)-1H-benzo[d]imidazole] stands 998 nM. Under `CCC(c1nc2ccc(Cl)cc2[nH]1)[C@H]1CC[C@@H](c2ccnc(F)c2C)CC1` (single isomer, unassigned) [Example 23-2, 6-chloro-2-(1-((cis)-4-(2-fluoro-3-methylpyridin-4-yl)cyclohexyl)-3-propyl)-1H-benzo[d]imidazole] stands 3.2 nM.

Regarding `CCC(c1nc2ncc(Cl)cc2[nH]1)[C@H]1CC[C@@H](c2ccnc(F)c2C)CC1` (single isomer, unassigned) [Example 24-1, 6-chloro-2-(1-((cis)-4-(2-fluoro-3-methylpyridin-4-yl)cyclohexyl)-3-propyl)-1H-imidazo[4,5-b]pyridine], the IC50 came out at 375 nM. Under `CCC(c1nc2ncc(Cl)cc2[nH]1)[C@H]1CC[C@@H](c2ccnc(F)c2C)CC1` (single isomer, unassigned) [Example 24-2, 6-chloro-2-(1-((cis)-4-(2-fluoro-3-methylpyridin-4-yl)cyclohexyl)-3-propyl)-1H-imidazo[4,5-b]pyridine] stands 2.7 nM; under `CCOCC(c1nc2ccc(Cl)cc2[nH]1)[C@H]1CC[C@@H](c2ccnc(F)c2C)CC1` (single isomer, unassigned) [Example 25-1, 6-chloro-2-(2-ethoxy-1-((cis)-4-(2-fluoro-3-methylpyridin-4-yl)cyclohexyl)ethyl)-1H-benzo[d]imidazole], 10.2 nM; under `CCOCC(c1nc2ccc(Cl)cc2[nH]1)[C@H]1CC[C@@H](c2ccnc(F)c2C)CC1` (single isomer, unassigned) [Example 25-2, 6-chloro-2-(2-ethoxy-1-((cis)-4-(2-fluoro-3-methylpyridin-4-yl)cyclohexyl)ethyl)-1H-benzo[d]imidazole], 22.9 nM. `CC(c1nc2ccc(Cl)cc2[nH]1)C1CCC(c2ccnc3ncccc23)CC1` (single isomer, unassigned) [Example 35-2] registered an IC50 of 14.3 nM.

With `C[C@H](c1nc2ccc(Cl)cc2[nH]1)[C@H]1CC[C@@H](c2ccnc(C(F)(F)F)c2)CC1` (single isomer, unassigned) [Example 39-1, 6-chloro-2-(1-(4-(2-(trifluoromethyl)pyridin-4-yl)cyclohexyl)ethyl)-1H-benzo[d]imidazole], the IC50 came out at 170 nM. Under `C[C@H](c1nc2ccc(Cl)cc2[nH]1)[C@H]1CC[C@@H](c2ccnc(C(F)(F)F)c2)CC1` (single isomer, unassigned) [Example 39-2, 6-chloro-2-(1-(4-(2-(trifluoromethyl)pyridin-4-yl)cyclohexyl)ethyl)-1H-benzo[d]imidazole] stands 75.4 nM; under `C[C@H](c1nc2ccc(Cl)cc2[nH]1)[C@H]1CC[C@@H](c2ccnc(C(F)(F)F)c2)CC1` (single isomer, unassigned) [Example 39-3, 6-chloro-2-(1-(4-(2-(trifluoromethyl)pyridin-4-yl)cyclohexyl)ethyl)-1H-benzo[d]imidazole], 117 nM; under `C[C@@H](c1nnc2ccccn12)[C@H]1CC[C@@H](c2ccnc3ccc(F)cc32)CC1` [Example 26, 4-((cis)-4-((R)-1-([1,2,4]triazolo[4,3-a]pyridin-3-yl)ethyl)cyclohexyl)-6-fluoroquinoline], 459 nM.

These data come from patent US11337970B2, “Inhibitors of indoleamine 2,3-dioxygenase and methods of their use” (BRISTOL-MYERS SQUIBB COMPANY, priority 2016, dated 2022).
